Reference: ChEMBL document CHEMBL5344411, “Phenotypic screening-based drug discovery of furan-2-carboxylic acid derivatives for the amelioration of type 2 diabetes mellitus (T2DM)” (Eur J Med Chem, 2023)
The source made the active and inactive calls. The calls are words filed in the database; no cut-off is given here.

How the values were obtained:
Hepatocyte [1] = assay: Inhibition of gluconeogenesis in Sprague-Dawley rat hepatocytes at 10 uM incubated for 1.5 hrs followed by sodium pyruvate and sodium lactate addition and measured after 4 hrs by colorimetric analysis relative to control; format: functional; details: time 5.5 hrs
Hepatocyte [2] = assay: Inhibition of gluconeogenesis in Sprague-Dawley rat hepatocytes at 0.3 uM incubated for 1.5 hrs followed by sodium pyruvate and sodium lactate addition and measured after 4 hrs by colorimetric analysis relative to control; format: functional; details: time 5.5 hrs
Hepatocyte [3] = assay: Inhibition of gluconeogenesis in Sprague-Dawley rat hepatocytes at 1 uM incubated for 1.5 hrs followed by sodium pyruvate and sodium lactate addition and measured after 4 hrs by colorimetric analysis relative to control; format: functional; details: time 5.5 hrs
Hepatocyte [4] = assay: Inhibition of gluconeogenesis in Sprague-Dawley rat hepatocytes at 3 uM incubated for 1.5 hrs followed by sodium pyruvate and sodium lactate addition and measured after 4 hrs by colorimetric analysis relative to control; format: functional; details: time 5.5 hrs
Mus musculus [5] = assay: Inhibition of gluconeogenesis in CD-1 mouse assessed as decrease in blood glucose level at 50 mg/kg administered via gavage at 1 hr prior to pyruvate sodium challenge and measured for 2 hrs by pyruvate tolerance test; format: functional, organism-based; details: time 3.0 hrs
Mus musculus [6] = assay: Inhibition of gluconeogenesis in CD-1 mouse assessed as decrease in blood glucose level at 50 mg/kg administered via gavage at 2 hrs prior to pyruvate sodium challenge and measured for 2 hrs by pyruvate tolerance test; format: functional, organism-based; details: time 4.0 hrs
Mus musculus [7] = assay: Antihyperglycemic activity in diabetic ob/ob mouse assessed as reduction in non-fasting blood glucose level at 15 mg/kg administered via gavage qd for 24 days and measured on day 24; format: functional, organism-based; details: time 24.0 day
Mus musculus [8] = assay: Antihyperglycemic activity in diabetic ob/ob mouse assessed as reduction in fasting blood glucose level at 15 mg/kg administered via gavage qd for 24 days and measured on day 24; format: functional, organism-based; details: time 24.0 day
[9] = Toxicity in diabetic ob/ob mouse assessed as effect on body weight at 15 mg/kg administered via gavage qd for 24 days; format: organism-based; details: in vivo, po, 576 h, time 24 day
[10] = Toxicity in diabetic ob/ob mouse assessed as effect on daily food intake at 15 mg/kg administered via gavage qd for 24 days; format: organism-based; details: in vivo, po, 576 h, time 24 day

SMILES: C=CCc1ccc(OCc2ccc(C(=O)N3CCOCC3)o2)c(OC)c1
- fold change (FC) (Hepatocyte [1]): 0.97

SMILES: CCCc1ccc(OCc2ccc(C(=O)O)o2)c(OCCn2cccc2)c1
- fold change (FC) (Hepatocyte [1]): 1.28

SMILES: Cc1cc(Br)ccc1OCc1ccc(C(=O)O)o1
- fold change (FC) (Hepatocyte [1]): 0.33
- fold change (FC) (Hepatocyte [2]): 0.93
- fold change (FC) (Hepatocyte [3]): 1.01
- fold change (FC) (Hepatocyte [4]): 0.37
- inhibition (Mus musculus [5]): Active

SMILES: C=CCc1ccc(OCc2ccc(C(=O)N(C)C)o2)c(OC)c1
- fold change (FC) (Hepatocyte [1]): 0.87

SMILES: CNC(=O)/C=C/c1ccc(OCc2ccc(C(=O)O)o2)c(OC)c1
- fold change (FC) (Hepatocyte [1]): 0.85

SMILES: CCCc1ccc(OCc2ccc(C(=O)O)o2)c(OCCOC)c1
- fold change (FC) (Hepatocyte [1]): 0.72

SMILES: CCCOc1cc(CCC)ccc1OCc1ccc(C(=O)O)o1
- fold change (FC) (Hepatocyte [1]): 0.72

SMILES: C=CCc1ccc(OCc2ccc(C(=O)O)s2)c(OC)c1
- fold change (FC) (Hepatocyte [1]): 1.05

SMILES: C=CCc1ccc(OC)c(OCc2ccc(C(=O)O)o2)c1
- fold change (FC) (Hepatocyte [1]): 1

SMILES: CCCc1ccc(OCc2ccc(C(=O)O)o2)c(NC)c1
- fold change (FC) (Hepatocyte [1]): 0.41
- fold change (FC) (Hepatocyte [2]): 1.02
- fold change (FC) (Hepatocyte [3]): 0.81
- fold change (FC) (Hepatocyte [4]): 0.56
- inhibition (Mus musculus [5]): Active

SMILES: CCCc1ccc(OCc2ccc(C(=O)O)o2)c(OC)c1
- fold change (FC) (Hepatocyte [1]): 0.65
- fold change (FC) (Hepatocyte [2]): 1.19
- fold change (FC) (Hepatocyte [3]): 1.05
- fold change (FC) (Hepatocyte [4]): 0.75
- inhibition (Mus musculus [6]): Active

SMILES: CCCc1cccc(OC)c1OCc1ccc(C(=O)O)o1
- fold change (FC) (Hepatocyte [1]): 0.67

SMILES: C/C=C/c1ccc(OCc2ccc(C(=O)O)o2)c(OC)c1
- fold change (FC) (Hepatocyte [1]): 0.93

SMILES: CNC(=O)CCc1ccc(OCc2ccc(C(=O)O)o2)c(OC)c1
- fold change (FC) (Hepatocyte [1]): 0.98

SMILES: C=CCc1ccc(OCc2ccc(C(=O)O)o2)c(OC)c1
- fold change (FC) (Hepatocyte [1]): 0.57
- fold change (FC) (Hepatocyte [2]): 0.96
- fold change (FC) (Hepatocyte [3]): 0.92
- fold change (FC) (Hepatocyte [4]): 0.73
- inhibition (Mus musculus [6]): Active
- inhibition (Mus musculus [5]): Active
- Activity (Mus musculus [7]): Active
- Activity (Mus musculus [8]): Active
- Activity [9]: Non-Toxic
- Activity [10]: Non-Toxic

SMILES: CCCc1ccc(OCc2ccc(C(=O)O)o2)c(OC(C)C)c1
- fold change (FC) (Hepatocyte [1]): 1.25

SMILES: COc1cc(CC(=O)N(C)C)ccc1OCc1ccc(C(=O)O)o1
- fold change (FC) (Hepatocyte [1]): 1.15

SMILES: C=CCc1ccc(OCc2cccc(C(=O)O)n2)c(OC)c1
- fold change (FC) (Hepatocyte [1]): 1.11

SMILES: COc1cc(Cl)ccc1OCc1ccc(C(=O)O)o1
- fold change (FC) (Hepatocyte [1]): 0.33
- fold change (FC) (Hepatocyte [2]): 1.02
- fold change (FC) (Hepatocyte [3]): 0.78
- fold change (FC) (Hepatocyte [4]): 0.51
- inhibition (Mus musculus [5]): Active
